Consider 19 compounds from US11738019B2, “Substituted heterocycles as antiviral agents” (ENANTA PHARMACEUTICALS, INC., priority 2019, dated 2023).

The nature of data set [1]: compound induced cellular toxicity in HepG2 cells (ATPlite 1Step). It counts as cell-based. The note with it: human, three days, concentration reducing total ATP levels by 50% relative to no drug controls. How it is done: At day 3, post seeding cells are treated with ATPlite 1Step according to the manufacturer's instructions.
The next data set deals with HBV (2.2.15 cells). The data set is described as follows: HBV viral product reduction in 2.2.15 cells (qPCR / HBsAg or HBeAg ELISA). The note with it: Hepatitis B virus, 120 h, day 5 post treatment, concentration reducing viral product accumulation in cell lysates or supernatants by 50% relative to no drug controls. It counts as cell-based. How it is done:
2.2.15 cells are passaged upon attaining confluency in DMEM/F12 media in the presence of 10% FBS, Penn/Strep, and 250 ug/mL G418. Novel compounds are 5 fold serially diluted in DMSO and added to 96 well plates containing 35,000 cells/well at a 1:200 dilution so that the final concentration of DMSO is 0.5%. On day 5, post treatment cell lysates and supernatants are harvested for analysis.
Cells are lysed using Agilent Sidestep Lysis buffer, diluted 1:100 and quantified via quantitative real time PCR. Commercially available ELISA kits are used to quantitate the viral proteins HBsAg (Alpco) or HBeAg (US Biological) by following the manufacturer's recommended protocol after diluting samples to match the linear range of their respective assays. Irrespective of readout, compound concentrations that reduce viral product accumulation in the cell lysates or supernatants by 50% relative to no drug controls (EC50) are reported; EC50 ranges are as follows: A<0.1 μM; B 0.1-1 μM; C>1 μM.

With `CC(C)(C)[C@@H]1Cc2c(cc(Cl)c3occc23)-c2cc(=O)c(C(=O)O)cn21` [Example 1, (S)-5-(tert-butyl)-12-chloro-9-oxo-4,9-dihydro-5H-furo[3,2-f]pyrido[2,1-a]isoquinoline-8-carboxylic acid], the CC50 at 3 days in data set [1] is > 25 µM. Besides, in the data set with HBV (2.2.15 cells), the EC50 was < 0.1 µM.

As for `CC(C)(C)[C@@H]1Cc2c(cc(Cl)c3ccoc23)-c2cc(=O)c(C(=O)O)cn21` [Example 2, (S)-5-(tert-butyl)-12-chloro-9-oxo-4,9-dihydro-5H-furo[2,3-f]pyrido[2,1-a]isoquinoline-8-carboxylic acid], the CC50 at 3 days in data set [1] was > 25 µM. For the same compound, the EC50 with HBV (2.2.15 cells) was < 0.1 µM. For the compound `CC(C)(C)[C@@H]1Cc2c(cc(-c3ccoc3)c3ccoc23)-c2cc(=O)c(C(=O)O)cn21` [Example 3, (S)-5-(tert-butyl)-12-(furan-3-yl)-9-oxo-4,9-dihydro-5H-furo[2,3-f]pyrido[2,1-a]isoquinoline-8-carboxylic acid], in data set [1], the half-maximal cytotoxic concentration (CC50) at 3 days is > 25 µM. The concentration giving a half-maximal response (EC50) with HBV (2.2.15 cells) was < 0.1 µM. On to `Cn1cc(-c2cc3c(c4ccoc24)C[C@@H](C(C)(C)C)n2cc(C(=O)O)c(=O)cc2-3)cn1` [Example 5, (S)-5-(tert-butyl)-12-(1-methyl-1H-pyrazol-4-yl)-9-oxo-4,9-dihydro-5H-furo[3,2-f]pyrido[2,1-a]isoquinoline-8-carboxylic acid], for which the cytotoxic concentration (CC50) at 3 days in data set [1] was > 25 µM. Moreover, the EC50 in the data set on HBV (2.2.15 cells) is > 1 µM. Regarding `CC(C)(C)[C@@H]1Cc2c(cc(-c3ccn[nH]3)c3ccoc23)-c2cc(=O)c(C(=O)O)cn21` [Example 6, (S)-5-(tert-butyl)-9-oxo-12-(1H-pyrazol-5-yl)-4,9-dihydro-5H-furo[2,3-f]pyrido[2,1-a]isoquinoline-8-carboxylic acid], the CC50 at 3 days in data set [1] lay in the range of 10 to 25 µM. The EC50 in the data set with HBV (2.2.15 cells) is < 0.1 µM. In the case of `CC(C)(C)[C@@H]1Cc2c(cc(-c3ccsc3)c3ccoc23)-c2cc(=O)c(C(=O)O)cn21` [Example 7, (S)-5-(tert-butyl)-9-oxo-12-(thiophen-3-yl)-4,9-dihydro-5H-furo[2,3-f]pyrido[2,1-a]isoquinoline-8-carboxylic acid], the CC50 at 3 days in data set [1] is 10 to 25 µM. In addition, in the data set on HBV (2.2.15 cells), the EC50 was < 0.1 µM.

Take `CC(C)(C)[C@@H]1Cc2c(cc(-c3ccco3)c3ccoc23)-c2cc(=O)c(C(=O)O)cn21` [Example 8, (S)-5-(tert-butyl)-12-(furan-2-yl)-9-oxo-4,9-dihydro-5H-furo[2,3-f]pyrido[2,1-a]isoquinoline-8-carboxylic acid]: the CC50 at 3 days in data set [1] is > 25 µM. In the data set on HBV (2.2.15 cells), the concentration giving a half-maximal response (EC50) is < 0.1 µM.

Consider `CC(C)(C)[C@@H]1Cc2c(cc(-c3cn[nH]c3)c3ccoc23)-c2cc(=O)c(C(=O)O)cn21` [Example 9, (S)-5-(tert-butyl)-9-oxo-12-(1H-pyrazol-4-yl)-4,9-dihydro-5H-furo[2,3-f]pyrido[2,1-a]isoquinoline-8-carboxylic acid], for which the 50% cytotoxic concentration (CC50) at 3 days in data set [1] is > 25 µM. Moreover, in the data set on HBV (2.2.15 cells), the concentration for a half-maximal effect (EC50) was < 0.1 µM. On the same counts, the results for `CC(C)(C)[C@@H]1Cc2c(cc(-c3cccs3)c3ccoc23)-c2cc(=O)c(C(=O)O)cn21` [Example 10, (S)-5-(tert-butyl)-9-oxo-12-(thiophen-2-yl)-4,9-dihydro-5H-furo[2,3-f]pyrido[2,1-a]isoquinoline-8-carboxylic acid] are 10 to 25 µM and < 0.1 µM. `CC(C)(C)[C@@H]1Cc2c(cc(-c3cnsc3)c3ccoc23)-c2cc(=O)c(C(=O)O)cn21` [Example 11, (S)-5-(tert-butyl)-12-(isothiazol-4-yl)-9-oxo-4,9-dihydro-5H-furo[2,3-f]pyrido[2,1-a]isoquinoline-8-carboxylic acid]: the CC50 at 3 days in data set [1] was > 25 µM. Moreover, in the data set with HBV (2.2.15 cells), the concentration for a half-maximal effect (EC50) is < 0.1 µM. `CC(C)(C)[C@@H]1Cc2c(cc(-c3cnco3)c3ccoc23)-c2cc(=O)c(C(=O)O)cn21` [Example 12, (S)-5-(tert-butyl)-12-(oxazol-5-yl)-9-oxo-4,9-dihydro-5H-furo[2,3-f]pyrido[2,1-a]isoquinoline-8-carboxylic acid]: the CC50 at 3 days in data set [1] is > 25 µM. Besides, the concentration giving a half-maximal response (EC50) with HBV (2.2.15 cells) is < 0.1 µM. In turn, `CC(C)(C)[C@@H]1Cc2c(cc(-c3ccoc3)c3occc23)-c2cc(=O)c(C(=O)O)cn21` [Example 13, (S)-5-(tert-butyl)-12-(furan-3-yl)-9-oxo-4,9-dihydro-5H-furo[3,2-f]pyrido[2,1-a]isoquinoline-8-carboxylic acid] came in with a half-maximal cytotoxic concentration (CC50) at 3 days in data set [1] of 10 to 25 µM. Also, the EC50 in the data set on HBV (2.2.15 cells) was < 0.1 µM. For `Cn1nccc1-c1cc2c(c3occc13)C[C@@H](C(C)(C)C)n1cc(C(=O)O)c(=O)cc1-2` [Example 14, (S)-5-(tert-butyl)-12-(1-methyl-1H-pyrazol-5-yl)-9-oxo-4,9-dihydro-5H-furo[2,3-f]pyrido[2,1-a]isoquinoline-8-carboxylic acid], in that order: > 25 µM and < 0.1 µM.

As for `Cn1cc(-c2cc3c(c4occc24)C[C@@H](C(C)(C)C)n2cc(C(=O)O)c(=O)cc2-3)cn1` [Example 15, (S)-5-(tert-butyl)-12-(1-methyl-1H-pyrazol-4-yl)-9-oxo-4,9-dihydro-5H-furo[2,3-f]pyrido[2,1-a]isoquinoline-8-carboxylic acid], in data set [1], the 50% cytotoxic concentration (CC50) at 3 days is > 25 µM. Further, the concentration for a half-maximal effect (EC50) in the data set on HBV (2.2.15 cells) was < 0.1 µM. The compound `Cn1ccc(-c2cc3c(c4occc24)C[C@@H](C(C)(C)C)n2cc(C(=O)O)c(=O)cc2-3)n1` [Example 16, (S)-5-(tert-butyl)-12-(1-methyl-1H-pyrazol-3-yl)-9-oxo-4,9-dihydro-5H-furo[2,3-f]pyrido[2,1-a]isoquinoline-8-carboxylic acid] displayed a CC50 at 3 days in data set [1] of 10 to 25 µM. In the data set with HBV (2.2.15 cells), the concentration giving a half-maximal response (EC50) is < 0.1 µM. In the case of `CC(C)(C)[C@@H]1Cc2c(cc(-c3cscn3)c3ccoc23)-c2cc(=O)c(C(=O)O)cn21` [Example 17, (S)-5-(tert-butyl)-9-oxo-12-(thiazol-4-yl)-4,9-dihydro-5H-furo[2,3-f]pyrido[2,1-a]isoquinoline-8-carboxylic acid], the 50% cytotoxic concentration (CC50) at 3 days in data set [1] is > 25 µM. For the same compound, the EC50 in the data set on HBV (2.2.15 cells) was < 0.1 µM. Take `CC(C)(C)[C@@H]1Cc2c(cc(N3CCCC3)c3ccoc23)-c2cc(=O)c(C(=O)O)cn21` [Example 18, (S)-5-(tert-butyl)-9-oxo-12-(pyrrolidin-1-yl)-4,9-dihydro-5H-furo[2,3-f]pyrido[2,1-a]isoquinoline-8-carboxylic acid]: the CC50 at 3 days in data set [1] is > 25 µM. The EC50 in the data set on HBV (2.2.15 cells) was < 0.1 µM. On the same counts, the results for `CC(C)(C)[C@@H]1Cc2c(cc(N3CCC(F)(F)C3)c3ccoc23)-c2cc(=O)c(C(=O)O)cn21` [Example 19, (S)-5-(tert-butyl)-12-(3,3-difluoropyrrolidin-1-yl)-9-oxo-4,9-dihydro-5H-furo[2,3-f]pyrido[2,1-a]isoquinoline-8-carboxylic acid] are 10 to 25 µM and < 0.1 µM. Consider `CC(C)(C)[C@@H]1Cc2c(ccc3occc23)-c2cc(=O)c(C(=O)O)cn21` [Example 31, (S)-5-(tert-butyl)-9-oxo-4,9-dihydro-11-furo[3,2-f]pyrido[2,1-a]isoquinoline-8-carboxylic acid], for which, in the data set with HBV (2.2.15 cells), the 50% effective concentration (EC50) was > 1 µM.
